Test results: PubChem BioAssay AID256 (DTP/NCI, 2004)
Several values for one entry are separate records, joined by “and”; a condition that tells them apart may be missing. Equal values may be shown once. Toxic doses and inconclusive results are not listed.

Tested on: CD2F1 mice, L1210 leukemia ip, survival T/C
Assay: NCI In Vivo Anticancer Drug Screen. Data for tumor model L1210 Leukemia (intraperitoneal) in CD2F1 (CDF1) mice
Settings: higher = longer survival
Outline: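 Activity against a transplanted murine tumor was judged by comparing the compound group with a vehicle group. The outcome in the treated animals was divided by that in the controls.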

[1] = endpoint: mean survival time, dose: 100.0 mg/kg/injection, schedule: Q01DX009 (ip), vehicle: saline with Tween-80
[2] = endpoint: mean survival time, dose: 200.0 mg/kg/injection, schedule: Q01DX009 (ip), vehicle: saline with Tween-80
[3] = endpoint: mean survival time, dose: 400.0 mg/kg/injection, schedule: Q01DX009 (ip), vehicle: saline with Tween-80
[4] = endpoint: mean survival time, dose: 200.0 mg/kg/injection, schedule: Q04DX002 (ip), vehicle: saline with Tween-80
[5] = endpoint: mean survival time, dose: 400.0 mg/kg/injection, schedule: Q04DX002 (ip), vehicle: saline with Tween-80
[6] = endpoint: mean survival time, dose: 25.0 mg/kg/injection, schedule: Q04DX002 (ip), vehicle: saline with Tween-80
[7] = endpoint: mean survival time, dose: 100.0 mg/kg/injection, schedule: Q04DX003 (ip), vehicle: saline with Tween-80
[8] = endpoint: mean survival time, dose: 200.0 mg/kg/injection, schedule: Q04DX003 (ip), vehicle: saline with Tween-80
[9] = endpoint: mean survival time, dose: 400.0 mg/kg/injection, schedule: Q04DX003 (ip), vehicle: saline with Tween-80
[10] = endpoint: mean survival time, dose: 50.0 mg/kg/injection, schedule: Q01DX009 (ip), vehicle: saline

c1ccc(-c2nnc(-c3ccccn3)nn2)nc1
T/C (endpoint: mean survival time, dose: 12.5 mg/kg/injection, schedule: Q01DX009 (ip), vehicle: Klucel (hydroxypropylcellulose) (HPC)): 103 % of control
T/C (endpoint: mean survival time, dose: 25.0 mg/kg/injection, schedule: Q01DX009 (ip), vehicle: Klucel (hydroxypropylcellulose) (HPC)): 101 % of control
T/C (endpoint: mean survival time, dose: 50.0 mg/kg/injection, schedule: Q01DX009 (ip), vehicle: Klucel (hydroxypropylcellulose) (HPC)): 106 % of control
T/C (endpoint: mean survival time, dose: 100.0 mg/kg/injection, schedule: Q01DX009 (ip), vehicle: Klucel (hydroxypropylcellulose) (HPC)): 101 % of control
T/C (endpoint: mean survival time, dose: 200.0 mg/kg/injection, schedule: Q01DX009 (ip), vehicle: Klucel (hydroxypropylcellulose) (HPC)): 95 % of control
T/C (endpoint: mean survival time, dose: 400.0 mg/kg/injection, schedule: Q01DX009 (ip), vehicle: Klucel (hydroxypropylcellulose) (HPC)): 101 % of control

O=C(c1ccccc1)c1cccs1
T/C (endpoint: mean survival time, dose: 22.0 mg/kg/injection, schedule: Q01DX009 (ip), vehicle: saline with Tween-80): 96 % of control
T/C (endpoint: mean survival time, dose: 22.0 mg/kg/injection, schedule: Q04DX003 (ip), vehicle: saline with Tween-80): 95 % of control
T/C (endpoint: mean survival time, dose: 44.0 mg/kg/injection, schedule: Q01DX009 (ip), vehicle: saline with Tween-80): 96 % of control
T/C (endpoint: mean survival time, dose: 44.0 mg/kg/injection, schedule: Q04DX003 (ip), vehicle: saline with Tween-80): 101 % of control
T/C (endpoint: mean survival time, dose: 88.0 mg/kg/injection, schedule: Q01DX009 (ip), vehicle: saline with Tween-80): 93 % of control
T/C (endpoint: mean survival time, dose: 88.0 mg/kg/injection, schedule: Q04DX003 (ip), vehicle: saline with Tween-80): 104 % of control

COc1cccc(C#Cc2ccccc2NC(C)=O)c1
T/C [1]: 91 % of control
T/C [2]: 86 % of control
T/C [3]: 94 % of control

COc1c(C)c2c(c(O)c1C/C=N\O)C(=O)OC2
T/C (endpoint: mean survival time, dose: 100.0 mg/kg/injection, schedule: Q04DX002 (ip), vehicle: saline with Tween-80): 100 % of control
T/C [4]: 100 % of control
T/C [5]: 100 % of control

CNCCNC1=C(Cl)C(=O)c2ccccc2C1=O
T/C (endpoint: mean survival time, dose: 6.25 mg/kg/injection, schedule: Q04DX003 (ip), vehicle: saline with Tween-80): 101 % of control
T/C (endpoint: mean survival time, dose: 12.5 mg/kg/injection, schedule: Q04DX003 (ip), vehicle: saline with Tween-80): 101 % of control
T/C (endpoint: mean survival time, dose: 25.0 mg/kg/injection, schedule: Q04DX003 (ip), vehicle: saline with Tween-80): 96 % of control and 102 % of control

COc1ccc(NC(=O)Nc2ccccc2C)c(OC)c1
T/C [6]: 88 % of control
T/C (endpoint: mean survival time, dose: 50.0 mg/kg/injection, schedule: Q04DX002 (ip), vehicle: saline with Tween-80): 88 % of control
T/C [4]: 90 % of control
T/C [5]: 90 % of control

COc1ccc(-n2cnnn2)cc1
T/C [7]: 101 % of control
T/C [8]: 106 % of control
T/C [9]: 112 % of control

C(=C(c1ccccc1)c1ccccc1)=C(c1ccccc1)c1ccccc1
T/C [1]: 93 % of control
T/C [7]: 100 % of control
T/C [2]: 90 % of control
T/C [8]: 97 % of control
T/C [3]: 90 % of control
T/C [9]: 95 % of control

NC1CCCCC1N.O=C([O-])c1ccc(N=Nc2cccc([N+](=O)[O-])c2)cc1[O-].[Pt+4]
T/C (endpoint: median survival time, dose: 3.12 mg/kg/injection, schedule: Q04DX003 (ip), vehicle: saline with Tween-80): 105 % of control and 109 % of control
T/C (endpoint: median survival time, dose: 6.25 mg/kg/injection, schedule: Q04DX003 (ip), vehicle: saline with Tween-80): 102 % of control and 110 % of control
T/C (endpoint: median survival time, dose: 12.5 mg/kg/injection, schedule: Q04DX003 (ip), vehicle: saline with Tween-80): 113 % of control
T/C (endpoint: median survival time, dose: 25.0 mg/kg/injection, schedule: Q04DX003 (ip), vehicle: saline with Tween-80): 116 % of control and 123 % of control
T/C (endpoint: median survival time, dose: 50.0 mg/kg/injection, schedule: Q04DX003 (ip), vehicle: saline with Tween-80): 123 % of control
T/C (endpoint: median survival time, dose: 100.0 mg/kg/injection, schedule: Q04DX003 (ip), vehicle: saline with Tween-80): 156 % of control
T/C (endpoint: median survival time, dose: 200.0 mg/kg/injection, schedule: Q04DX003 (ip), vehicle: saline with Tween-80): 166 % of control and 313 % of control

Cc1ccc(-c2[nH]c(=S)[nH]c(=O)c2CCO)cc1
T/C [7]: 91 % of control
T/C [8]: 97 % of control
T/C [9]: 93 % of control

CN(CCC#N)C(=O)Nc1ccccc1
T/C (endpoint: mean survival time, dose: 100.0 mg/kg/injection, schedule: Q04DX003 (ip), vehicle: saline + alcohol): 93 % of control
T/C (endpoint: mean survival time, dose: 200.0 mg/kg/injection, schedule: Q04DX003 (ip), vehicle: saline + alcohol): 98 % of control
T/C (endpoint: mean survival time, dose: 400.0 mg/kg/injection, schedule: Q04DX003 (ip), vehicle: saline + alcohol): 95 % of control

Cc1c(C)c([N+](=O)[O-])c(Br)c(C)c1[N+](=O)[O-]
T/C [1]: 103 % of control
T/C [7]: 95 % of control
T/C [2]: 97 % of control
T/C [8]: 88 % of control
T/C [3]: 101 % of control
T/C [9]: 87 % of control

[Cl][Pt+2][Cl].[NH-]c1cccc(I)c1.[NH-]c1cccc(I)c1
T/C (endpoint: mean survival time, dose: 3.12 mg/kg/injection, schedule: Q04DX003 (ip), vehicle: distilled water + Tween-80): 103 % of control
T/C (endpoint: mean survival time, dose: 6.25 mg/kg/injection, schedule: Q04DX003 (ip), vehicle: distilled water + Tween-80): 110 % of control
T/C (endpoint: mean survival time, dose: 12.5 mg/kg/injection, schedule: Q04DX003 (ip), vehicle: distilled water + Tween-80): 108 % of control
T/C (endpoint: mean survival time, dose: 25.0 mg/kg/injection, schedule: Q04DX003 (ip), vehicle: distilled water + Tween-80): 106 % of control
T/C (endpoint: mean survival time, dose: 50.0 mg/kg/injection, schedule: Q04DX003 (ip), vehicle: distilled water + Tween-80): 112 % of control
T/C (endpoint: mean survival time, dose: 100.0 mg/kg/injection, schedule: Q04DX003 (ip), vehicle: distilled water + Tween-80): 112 % of control

O=C(O)c1ccccc1C(=O)c1cccc2ccccc12
T/C [7]: 104 % of control
T/C [8]: 96 % of control

CC[N+](C)(CC)CCCOC(=O)c1ccccc1Oc1ccc(C)cc1
T/C [10]: 102 % of control

Nc1cc(NCc2ccco2)ncn1
T/C (endpoint: mean survival time, dose: 37.5 mg/kg/injection, schedule: Q01DX009 (ip), vehicle: Klucel (hydroxypropylcellulose) (HPC)): 107 % of control
T/C (endpoint: mean survival time, dose: 75.0 mg/kg/injection, schedule: Q01DX009 (ip), vehicle: Klucel (hydroxypropylcellulose) (HPC)): 97 % of control and 104 % of control

CN(C)c1ccc(/C=C(\C#N)c2ccc([N+](=O)[O-])cc2)c(Cl)c1
T/C [1]: 97 % of control
T/C [2]: 97 % of control
T/C [3]: 92 % of control

NC(CSS(=O)(=O)O)=NCCc1cccs1
T/C (endpoint: mean survival time, dose: 12.5 mg/kg/injection, schedule: Q04DX002 (ip), vehicle: saline with Tween-80): 97 % of control
T/C [6]: 105 % of control

CCOC(=O)C12CCCCCC1CC(=O)CC2 (configuration not stated)
T/C (endpoint: mean survival time, dose: 100.0 mg/kg/injection, schedule: Q04DX003 (ip), vehicle: acetone): 96 % of control
T/C (endpoint: mean survival time, dose: 200.0 mg/kg/injection, schedule: Q04DX003 (ip), vehicle: acetone): 93 % of control
T/C (endpoint: mean survival time, dose: 400.0 mg/kg/injection, schedule: Q04DX003 (ip), vehicle: acetone): 86 % of control

CCCCCCCCCCCCCCCCOc1ccc(S(=O)(=O)NC(C)(C)C)cc1[N+](=O)[O-]
T/C [7]: 105 % of control
T/C [8]: 96 % of control
T/C [9]: 94 % of control

CCCCCCCCCCC(CCCCCCCCCC)=NN=C(CCCCCCCCCC)CCCCCCCCCC
T/C (endpoint: mean survival time, dose: 100.0 mg/kg/injection, schedule: Q01DX001 (ip), vehicle: Klucel (hydroxypropylcellulose) (HPC)): 90 % of control
T/C (endpoint: mean survival time, dose: 200.0 mg/kg/injection, schedule: Q01DX001 (ip), vehicle: Klucel (hydroxypropylcellulose) (HPC)): 86 % of control
T/C (endpoint: mean survival time, dose: 400.0 mg/kg/injection, schedule: Q01DX001 (ip), vehicle: Klucel (hydroxypropylcellulose) (HPC)): 90 % of control

COC(=O)N1C=Cc2ccccc2C1C#N (configuration not stated)
T/C (endpoint: mean survival time, dose: 25.0 mg/kg/injection, schedule: Q01DX009 (ip), vehicle: saline): 89 % of control
T/C [10]: 98 % of control
T/C (endpoint: mean survival time, dose: 100.0 mg/kg/injection, schedule: Q01DX009 (ip), vehicle: saline): 88 % of control

CC(=O)N/N=C\C1=CCC=C(Br)S1
T/C (endpoint: mean survival time, dose: 50.0 mg/kg/injection, schedule: Q01DX009 (ip), vehicle: saline with Tween-80): 107 % of control
T/C (endpoint: mean survival time, dose: 100.0 mg/kg/injection, schedule: Q01DX001 (ip), vehicle: saline with Tween-80): 93 % of control
T/C [1]: 107 % of control
T/C (endpoint: mean survival time, dose: 200.0 mg/kg/injection, schedule: Q01DX001 (ip), vehicle: saline with Tween-80): 102 % of control
T/C [2]: 116 % of control

CCNC1=C(C)C(=O)c2c(c(COC(N)=O)c3n2CC(NC(C)=O)C3O)C1=O (configuration not stated)
T/C (endpoint: mean survival time, dose: 33.0 mg/kg/injection, schedule: Q01DX001 (ip), vehicle: carboxymethylcellulose (CMC)): 98 % of control
T/C (endpoint: mean survival time, dose: 50.0 mg/kg/injection, schedule: Q01DX001 (ip), vehicle: carboxymethylcellulose (CMC)): 98 % of control
T/C (endpoint: mean survival time, dose: 75.0 mg/kg/injection, schedule: Q01DX001 (ip), vehicle: carboxymethylcellulose (CMC)): 102 % of control

COc1cc(C(=O)C=[N+]=[N-])cc(OC)c1OC(C)=O
T/C (endpoint: mean survival time, dose: 100.0 mg/kg/injection, schedule: Q01DX001 (ip), vehicle: saline): 91 % of control
T/C (endpoint: mean survival time, dose: 200.0 mg/kg/injection, schedule: Q01DX001 (ip), vehicle: saline): 96 % of control
T/C (endpoint: mean survival time, dose: 400.0 mg/kg/injection, schedule: Q01DX001 (ip), vehicle: saline): 110 % of control
